Drawing on patent publication US10821115B2, “Compounds that inhibit Mcl-1 protein” (priority 2017, dated 2020), this text covers IC50 for 12 compounds.

The test system of assay [1] is human multiple myeloma cell line, OPM-2. Nature of the assay: Cell viability assay (OPM-2 10 FBS), CellTiter-Glo. The format is cell-based. In outline:
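Steps: plate cells at 3000/well in 10% FBS growth medium, add serially diluted compound, incubate 16 h at 37 °C with 5% CO2, add detection reagent and read luminescence after 25 min. A 4-parameter logistic model gives IC50.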
Background: In ATP-based viability assays light output follows the ATP content of the culture.

For assay [2], the target named is recombinant human Mcl-1 (residues 171-327) / Bim interaction (Homo sapiens (Human), UniProt Q07820). Put plainly: biochemical. Format: binding. Particulars: read-out: Mcl-1 HTRF IC50.
Sequence of recombinant human Mcl-1 (residues 171-327) / Bim interaction (Q07820 171-327): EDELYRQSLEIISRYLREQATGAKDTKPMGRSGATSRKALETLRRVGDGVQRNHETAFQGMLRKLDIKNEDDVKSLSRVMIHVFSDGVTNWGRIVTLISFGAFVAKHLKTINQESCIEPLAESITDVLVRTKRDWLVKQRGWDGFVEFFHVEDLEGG
The mark [3] stands for this setting: Homo sapiens, OPM-2, 16 h, read-out: OPM-2 10% FBS IC50 IP, OPM-2 cells, 10% FBS, 16 h incubation.
[4] abbreviates: 0.1 nM Mcl-1(171-327), 0.05 nM biotin-Bim (51-76).
[5] abbreviates: Homo sapiens, OPM-2, 16 h, read-out: OPM-2 10% FBS IC50 IP, OPM-2 cells, 10% FBS, 16 h, CellTiter-Glo.
Where [6] appears, read: TR-FRET, Mcl-1(171-327) / biotin-Bim (51-76).
The mark [7] stands for this setting: read-out: OPM-2 10% FBS IC50 IP, OPM-2 cells, 10% FBS, 16 h, CellTiter-Glo.

Read-outs that look alike come from different tables or passages of the source.

As a reminder, the IC50 is the midpoint of a concentration-inhibition curve. In the case of `COCC[C@@H]1[C@@H](C)C/C=C/[C@@](CN2C[C@@H](C)N(C)[C@@H](C)C2)(OC)[C@@H]2CC[C@H]2CN2C[C@@]3(CCCc4cc(Cl)ccc43)COc3ccc(cc32)C(=O)NS1(=O)=O` [Example 191, (1S,3′R,6′R,7′R,8′E,11′S,12′R)-6-chloro-7′-methoxy-12′-(2-methoxyethyl)-11′-methyl-7′-(((3R,5S)-3,4,5-trimethyl-1-piperazinyl)methyl)-3,4-dihydro-2H,15′H-spiro[naphthalene-1,22′-[20]oxa[13]thia[1,14]diazatetracyclo [14.7.2.0~3,6~.0~19,24~]pentacosa[8,16,18,24]tetrae11]-15′-one 13′,13′-dioxide], the results for the half-inhibitory concentration (IC50) in assay [1] (setting [3]) and in assay [2] (setting [4]) were 42 nM and 0.096 nM, respectively.

For `CO[C@@H](C[C@]1(OC)/C=C/C[C@H](C)[C@@H](C)S(=O)(=O)NC(=O)c2ccc3c(c2)N(C[C@@H]2CC[C@H]21)C[C@@]1(CCCc2cc(Cl)ccc21)CO3)C1CC1` [Example 100462, (1S,3′R,6′R,7′S,8′E,11′S,12′R)-6-chloro-7′-((2S)-2-cyclopropyl-2-methoxyethyl)-7′-methoxy-11′,12′-dimethyl-3,4-dihydro-2H,15′H-spiro[naphthalene-1,22′-[20]oxa[13]thia[1,14]diazatetracyclo [14.7.2.0~3,6~.0~19,24~]pentacosa[8,16,18,24]tetraen]-15′-one 13′,13′-dioxide], the IC50 in assay [1] (setting [5]) came out at 652 nM; in assay [2] (setting [6]), 0.304 nM.

Regarding `CO[C@@]1(CC(=O)N(C)CC(F)(F)F)/C=C/C[C@H](C)[C@@H](C)S(=O)(=O)NC(=O)c2ccc3c(c2)N(C[C@@H]2CC[C@H]21)C[C@@]1(CCCc2cc(Cl)ccc21)CO3` [Example 100375, 2-((1S,3′R,6′R,7′S,8′E,11′S,12′R)-6-chloro-7′-methoxy-11′,12′-dimethyl-13′,13′-dioxido-15′-oxo-3,4-dihydro-2H-spiro[naphthalene-1,22′-[20]oxa[13]thia[1,14]diazatetracyclo [14.7.2.0~3,6~.0~19,24~]pentacosa[8,16,18,24]tetraen]-7′-yl)-N-methyl-N-(2,2,2-trifluoroethyl)acetamide], the IC50 in assay [1] (setting [5]) worked out at 176 nM; in assay [2] (setting [6]), 0.07 nM.

Turning to `CO[C@@]1([C@H](C)O)/C=C/C[C@H](C)[C@@H](C)S(=O)(=O)NC(=O)c2ccc3c(c2)N(C[C@@H]2CC[C@H]21)C[C@@]1(CCCc2cc(Cl)ccc21)CO3` (single isomer, unassigned) [Example 100486], the half-inhibitory concentration (IC50) in assay [1] (setting [5]) came out at 102 nM; in assay [2] (setting [6]), 0.381 nM.

Regarding `C[C@@H]1[C@@H](C)C/C=C/[C@](O)(CCO)[C@@H]2CC[C@H]2CN2C[C@@]3(CCCc4cc(Cl)ccc43)COc3ccc(cc32)C(=O)NS1(=O)=O` [Example 100175, (1S,3′R,6′R,7′R,8′E,11′S,12′R)-6-chloro-7′-hydroxy-7′-(2-hydroxyethyl)-11′,12′-dimethyl-3,4-dihydro-2H,15′H-spiro[naphthalene-1,22′-[20]oxa[13]thia[1,14]diazatetracyclo [14.7.2.0~3,6~.0~19,24~]pentacosa[8,16,18,24]tetraen]-15′-one 13′,13′-dioxide], the IC50 was 452 nM in assay [1] (setting [5]) and 0.149 nM in assay [2] (setting [6]).

`C[C@@H]1[C@@H](C)CCC[C@](O)(CS(C)(=O)=O)[C@@H]2CC[C@H]2CN2C[C@@]3(CCCc4cc(Cl)ccc43)COc3ccc(cc32)C(=O)NS1(=O)=O` (stereo in doubt) [Example 100161]: the half-inhibitory concentration (IC50) came to 757 nM in assay [1] (setting [5]) and 0.355 nM in assay [2] (setting [6]).

Take `COCCN(C)S(=O)(=O)C[C@]1(O)CCC[C@H](C)[C@@H](C)S(=O)(=O)NC(=O)c2ccc3c(c2)N(C[C@@H]2CC[C@H]21)C[C@@]1(CCCc2cc(Cl)ccc21)CO3` [Example 100166, 1-((1S,3′R,6′R,7′S,11′S,12′R)-6-chloro-7′-hydroxy-11′,12′-dimethyl-13′,13′-dioxido-15′-oxo-3,4-dihydro-2H-spiro[naphthalene-1,22′-[20]oxa[13]thia[1,14]diazatetracyclo [14.7.2.0~3,6~.0~19,24~]pentacosa[16,18,24]trien]-7′-yl)-N-(2-methoxyethyl)-N-methylmethanesulfonamide]: the values for the IC50 in assay [1] (setting [7]) and in assay [2] (setting [6]) were 945 nM and 1.77 nM, respectively.

`CCO[C@@]1(CN2CCN(C3COC3)CC2)/C=C/C[C@H](C)[C@@H](C)S(=O)(=O)NC(=O)c2ccc3c(c2)N(C[C@@H]2CC[C@H]21)C[C@@]1(CCCc2cc(Cl)ccc21)CO3` [Example 106, (1S,3′R,6′R,7′S,8′E,11′S,12′R)-6-chloro-7′-ethoxy-11′12′-dimethyl-7′-((4-(3-oxetanyl)-1-piperazinyl)methyl)-3,4-dihydro-2H,15′H-spiro[naphthalene-1,22′-[20]oxa[13]thia[1,14]diazatetracyclo [14.7.2.0~3,6~.0~19,24~]pentacosa[8,16,18,24]tetraen]-15′-one 13′,13′-dioxide]: the IC50 in assay [1] (setting [3]) came to 308 nM; in assay [2] (setting [4]) it was 0.299 nM.

In the case of `C[C@@H]1[C@@H](C)CCC[C@@](O)(CC(=O)N2CCCCC2)[C@@H]2CC[C@H]2CN2C[C@@]3(CCCc4cc(Cl)ccc43)COc3ccc(cc32)C(=O)NS1(=O)=O` [Example 100090, (1S,3′R,6′R,7′R,11′S,12′R)-6-chloro-7′-hydroxy-11′,12′-dimethyl-7′-(2-oxo-2-(1-piperidinyl)ethyl)-3,4-dihydro-2H,15′H-spiro[naphthalene-1,22′-[20]oxa[13]thia[1,14]diazatetracyclo [14.7.2.0~3,6~.0~19,24~]pentacosa[16,18,24]trien]-15′-one 13′,13′-dioxide], the IC50 in assay [1] (setting [7]) stood at 798 nM; in assay [2] (setting [6]), 0.795 nM.

`COCCN(C)C(=O)C[C@]1(O)/C=C/C[C@H](C)[C@@H](C)S(=O)(=O)NC(=O)c2ccc3c(c2)N(C[C@@H]2CC[C@H]21)C[C@@]1(CCCc2cc(Cl)ccc21)CO3` [Example 100277, 2-((1S,3′R,6′R,7′S,8′E,11′S,12′R)-6-chloro-7′-hydroxy-11′,12′-dimethyl-13′,13′-dioxido-15′-oxo-3,4-dihydro-2H-spiro[naphthalene-1,22′-[20]oxa[13]thia[1,14]diazatetracyclo [14.7.2.0~3,6~.0~19,24~]pentacosa[8,16,18,24]tetraen]-7′-yl)-N-(2-methoxyethyl)-N-methylacetamide]: the half-inhibitory concentration (IC50) in assay [1] (setting [5]) amounted to 448 nM; in assay [2] (setting [6]), 0.266 nM.

In the case of `CNC(=O)C[C@]1(O)CCC[C@H](C)[C@@H](C)S(=O)(=O)NC(=O)c2ccc3c(c2)N(C[C@@H]2CC[C@H]21)C[C@@]1(CCCc2cc(Cl)ccc21)CO3` [Example 100098, 2-((1S,3′R,6′R,7′R,11′S,12′R)-6-chloro-7′-hydroxy-11′,12′-dimethyl-13′,13′-dioxido-15′-oxo-3,4-dihydro-2H-spiro[naphthalene-1,22′-[20]oxa[13]thia[1,14]diazatetracyclo [14.7.2.0~3,6~.0~19,24~]pentacosa[16,18,24]trien]-7′-yl)-N-methylacetamide], the concentration for half-maximal inhibition (IC50) turned out to be 748 nM in assay [1] (setting [5]) and 0.231 nM in assay [2] (setting [6]).

For the compound `C[C@@H]1[C@@H](C)C/C=C/[C@@]2(COCCO2)[C@@H]2CC[C@H]2CN2C[C@@]3(CCCc4cc(Cl)ccc43)COc3ccc(cc32)C(=O)NS1(=O)=O` [Example 100264, (2S,3′R,6′R,8′E,11′S,12′R,22′S)-6″-chloro-11′,12′-dimethyl-3″,4″-dihydro-2″H,15′H-dispiro[1,4-dioxane-2,7′-[20]oxa[13]thia[1,14]diazatetracyclo [14.7.2.0~3,6~.0~19,24~]pentacosa[8,16,18,24]tetraene-22′,1″-naphthalen]-15′-one 13′,13′-dioxide], the IC50 in assay [1] (setting [7]) was 600 nM; in assay [2] (setting [6]), 0.384 nM.
